From patent publication US20140163099A1, “ANTIMICROBIAL COMPOSITION” (TAKASAGO INTERNATIONAL CORPORATION, priority 2011, published 2014)
≈ marks a conversion by molar mass, not a printed value.

Experiments:
Assay type in all cases: cell-based
[1] = test system: Corynebacterium minutissimum (NBRC15361T); assay: Growth inhibition activity (MIC, agar) against aerobic bacteria; details: Corynebacterium minutissimum; strain NBRC15361T; Mueller Hinton Agar, 37 degrees C. overnight; read-out: MIC (Minimum Inhibitory Concentration)
Experimental: (§1) In the present invention, the growth inhibition activity, which is an indicator of the antimicrobial activity, is evaluated by determining the Minimum Inhibitory Concentration (MIC) with an agar or liquid medium.
(§2) In the test for the growth inhibition activity, the following strains were used as skin-related bacteria: • Staphylococcus epidermidis: Staphylococcus epidermidis (JCM2414T and ATCC 12228) • Staphylococcus aureus: Staphylococcus aureus (NBRC12732 and JCM2151) • Skin indigenous bacteria which introduce a superficial infection: Corynebacterium minutissimum (NBRC15361T) • Armpit odor-causing bacteria: Corynebacterium xerosis (JCM1324)
(§3) The test strains were cultured in the liquid medium which the Bioresource center recommends, and then the test strains were subcultured to a Mueller Hinton Broth (Difco) at 30 degrees C. The grown bacteria were diluted to 10^6 CFU/ml with saline to adjust the bacteria fluids for inoculation.
(§4) Furthermore, in order to examine the growth inhibition activities against the bacteria by the above cooling agents, the concentration of the cooling agents: (3S)-CA20, (3R)-CA20, CA1, CA5, CA15, CA55 or CA MGH was diluted with ethanol to the required level of concentration for the determining the Minimum Inhibitory Concentration to produce the sample liquids.
(§5) Next, 100 μL of each sample liquid was added to 10 mL of a Mueller Hinton Agar (Difco) agar medium solution in a soluble state, and each agar medium solution was poured into a petri dish and solidified to prepare test plates having several concentrations of the sample liquids (several concentrations of the above cooling agents). Subsequently, 5 μL of the above bacteria fluids for inoculation were stamped on the test plates, and then the test plates were cultured at 37 degrees C. overnight.
(§6) In this way, the growth inhibition activities by (3S)-CA20, (3R)-CA20, CA1, CA5, CA15, CA55, CA MGH were examined. The minimum concentration of the cooling agent in which the growth of bacteria could not be confirmed was considered as the MIC (Minimum Inhibitory Concentration).
(§7) The minimum concentration of the cooling agent in which the grown strain could not be confirmed was considered as the MIC (Minimum Inhibitory Concentration).

[2] = test system: Corynebacterium xerosis (JCM1324); assay: as above; details: Corynebacterium xerosis; strain JCM1324; Mueller Hinton Agar, 37 degrees C. overnight; read-out: MIC (Minimum Inhibitory Concentration)
Experimental: as §1, §2, §3, §4, §5, §6, §7

[3] = test system: Staphylococcus aureus (JCM2151); assay: as above; details: Staphylococcus aureus; strain JCM2151; Mueller Hinton Agar, 37 degrees C. overnight; read-out: MIC (Minimum Inhibitory Concentration)
Experimental: as §1, §2, §3, §4, §5, §6, §7

[4] = test system: Staphylococcus aureus (NBRC12732); assay: as above; details: Staphylococcus aureus; strain NBRC12732; Mueller Hinton Agar, 37 degrees C. overnight; read-out: MIC (Minimum Inhibitory Concentration)
Experimental: as §1, §2, §3, §4, §5, §6, §7

[5] = test system: Staphylococcus epidermidis (JCM2414T); assay: as above; details: Staphylococcus epidermidis, strain JCM2414T; Mueller Hinton Agar, 37 degrees C. overnight; read-out: MIC (Minimum Inhibitory Concentration)
Experimental: as §1, §2, §3, §4, §5, §6, §7

[6] = test system: Porphyromonas gingivalis (JCM8525); assay: Growth inhibition activity (MIC, agar) against anaerobic bacteria; details: Porphyromonas gingivalis, JCM8525, 72 h, strain JCM8525; Trypticase Soy Broth agar, 37 degrees C. for 3 days; read-out: MIC (Minimum Inhibitory Concentration)
Experimental: as §1
(§8) In the test for growth inhibition activity, the following strains were used: • Acne bacteria: Propionibacterium acnes (JCM6473) and (ATCC6919) • Abscess bacteria: Bacteroides fragilis (GAI5560) • Cavity-causing bacteria: Streptococcus mutans (JCM5175), Actinomyces naeslundii (JCM8350) and Actinomyces viscosus (JCM8352) • Periodontal pathogen: Fusobacterium nucleatum (JCM6328), Porphyromonas gingivalis (JCM8525), Prevotella nigrescens (JCM6322)
(§9) The test strains were cultured in a GAM medium (Nissui Pharmaceutical Co., LTD), a Schaedler Broth (BBL) or a Trypticase Soy Broth (BBL) liquid medium, and then the grown bacteria were diluted in saline to prepare turbidity 0.5 McFarland of the bacteria fluids for inoculation. The bacteria were cultured at 37 degrees C. for 3 days under an anaerobic condition by using AnaeroPack® from MGC.
as §4, with “cooling agent,” for “cooling agents,”, “of concentrations” for “of concentration”
(§10) Next, 100 μL of each sample liquid was added to 10 mL of a Trypticase Soy Broth agar medium solution in a soluble state, and each agar medium solution was poured into a petri dish and solidified, to prepare the test plates. Subsequently, 5 μL of above the bacteria fluids for inoculation were stamped on the test plates, and then the test plates were cultured at 37 degrees C. for 3 days.
(§11) The minimum concentration of the cooling agent in which the growth of bacteria could not be confirmed was considered as the MIC (Minimum Inhibitory Concentration).
as §11

[7] = test system: Staphylococcus epidermidis (ATCC 12228); assay: Growth inhibition activity (MIC, agar) against aerobic bacteria; details: strain ATCC12228, Mueller Hinton Agar, 37 degrees C. overnight, read-out: MIC (Minimum Inhibitory Concentration)
Experimental: as §1, §2, §3, §4, §5, §6, §7

[8] = test system: Fusobacterium nucleatum (JCM6328); assay: Growth inhibition activity (MIC, agar) against anaerobic bacteria; details: 72 h, strain JCM6328, Trypticase Soy Broth agar, 37 degrees C. for 3 days, read-out: MIC (Minimum Inhibitory Concentration)
Experimental: as §1, §8, §9
as §4, with “cooling agent,” for “cooling agents,”, “of concentrations” for “of concentration”
as §10, §11, §11

[9] = test system: target microbe species; assay: Growth inhibition activity compared with 3-menthoxypropane-1,2-diol; details: depending on kinds of target microbe species
Excerpt: Although the all present cooling agents can have growth inhibition activities against both aerobic and anaerobic microorganisms (e.g. bacteria and fungi, etc.), menthyl 3-hydroxybutanoate and 3-menthoxypropan-1-ol have specifically high growth inhibition activities and potent growth inhibition activities against both aerobic and anaerobic microorganisms. Examples of microorganisms include Corynebacterium, Actinomyces and so on. Menthyl 3-hydroxybutanoate and 3-menthoxypropan-1-ol have 2 to 8 times as much growth inhibition activity as 3-menthoxypropane-1,2-diol (which is known as an antimicrobial agent), and can have more than or equal to 8 times as much growth inhibition activity as 3-menthoxypropane-1,2-diol, depending on kinds of target microbe species.
Furthermore, when compared 2-methyl-3-(menthoxy)propane-1,2-diol with 3-menthoxypropane-1,2-diol (which is known as an antimicrobial agent), the former has about 2 times as much growth inhibition activity as the latter, depending on kinds of target microbe species. […]
as §1

Structure (SMILES) | MIC [1] [µg/mL] | MIC [2] [µg/mL] | MIC [3] [µg/mL] | MIC [4] [µg/mL] | MIC [5] [µg/mL] | MIC [6] [µg/mL] | MIC [7] [µg/mL] | MIC [8] [µg/mL] | growth inhibition activity as multiple of 3-menthoxypropane-1,2-diol [9]
CC(O)CC(=O)OC1CC(C)CCC1C(C)C [(3S)-CA20, menthyl 3-hydroxybutanoate] | 200 (≈ 0.825 mM) | 100 (≈ 0.413 mM) | 100 (≈ 0.413 mM) | 200 (≈ 0.825 mM) | 100 (≈ 0.413 mM) | < 50 |  |  | 
CC1CCC(C(C)C)C(OCC(C)(O)CO)C1 (centres unmarked) [CA1, 2-methyl-3-(menthoxy)propane-1,2-diol] | 400 (≈ 1.64 mM) | 800 (≈ 3.27 mM) | 400 (≈ 1.64 mM) | 800 (≈ 3.27 mM) | 400 (≈ 1.64 mM) | 200 (≈ 0.818 mM) | 800 (≈ 3.27 mM) | 800 (≈ 3.27 mM) | about 2 times
CC1CCC(C(C)C)C(OCCO)C1 (centres unmarked) [CA5, 2-(menthoxy)ethanol] | 800 (≈ 3.99 mM) | 800 (≈ 3.99 mM) | 400 (≈ 2 mM) | 800 (≈ 3.99 mM) | 800 (≈ 3.99 mM) |  | 800 (≈ 3.99 mM) | 400 (≈ 2 mM) | 
CC1CCC(C(C)C)C(OCC(O)CO)C1 (centres unmarked) [CA10, 3-menthoxypropane-1,2-diol, reference compound] | 800 (≈ 3.47 mM) | 800 (≈ 3.47 mM) | 800 (≈ 3.47 mM) | 1600 (≈ 6.95 mM) | 800 (≈ 3.47 mM) |  | 1600 (≈ 6.95 mM) | 800 (≈ 3.47 mM) | 
CC1CCC(C(C)C)C(OCCCO)C1 (centres unmarked) [CA15, 3-menthoxypropan-1-ol] | 200 (≈ 0.933 mM) | 400 (≈ 1.87 mM) | 200 (≈ 0.933 mM) | 400 (≈ 1.87 mM) | 400 (≈ 1.87 mM) |  | 400 (≈ 1.87 mM) | 400 (≈ 1.87 mM) | 
CC1CCC(C(C)(C)O)C(O)C1 (centres unmarked) [CA38, p-menthane-3,8-diol, reference compound] | > 1600 | > 1600 | > 1600 | > 1600 | > 1600 |  | > 1600 | > 1600 | 
CC1CCC(C(C)C)C(OCCOCCO)C1 (centres unmarked) [CA55, 2-(2-menthoxyethoxy)ethanol] | 800 (≈ 3.27 mM) | 800 (≈ 3.27 mM) | 800 (≈ 3.27 mM) | 800 (≈ 3.27 mM) | 800 (≈ 3.27 mM) |  | 800 (≈ 3.27 mM) | 800 (≈ 3.27 mM) | 
CC1CCC(C(C)C)C(OC(=O)C=O)C1 (centres unmarked) [CA MGH, menthyl glyoxylate] | 100 (≈ 0.471 mM) | 100 (≈ 0.471 mM) | 100 (≈ 0.471 mM) | 100 (≈ 0.471 mM) | 50 (≈ 0.236 mM) | 50 (≈ 0.236 mM) | 50 (≈ 0.236 mM) | 100 (≈ 0.471 mM) | 
CNC(=O)C(C)(C(C)C)C(C)C [WS-23, N-methyl-2-isopropyl-2,3-dimethylbutanamide, reference compound] | > 1600 | > 1600 | > 1600 | > 1600 | > 1600 | > 1600 |  |  | 
CC1CCC(C(C)C)C(O)C1 (stereo not drawn) [l-menthol, menthol, reference compound] | 1600 (≈ 10.2 mM) | 1600 (≈ 10.2 mM) | 1600 (≈ 10.2 mM) | 1600 (≈ 10.2 mM) | 1600 (≈ 10.2 mM) |  | 1600 (≈ 10.2 mM) | 1600 (≈ 10.2 mM) | 
